Assays:
SARS-CoV-2 M^pro enzyme [1] = molecular target: T1, SARS-CoV-2 M^pro enzyme (Severe acute respiratory syndrome coronavirus 2, UniProt P0DTD1); test: Inhibition kinetic study (Lineweaver–Burk, FRET assay); format: biochemical; conditions: from slope of Lineweaver–Burk curves vs. inhibitor concentration
SARS-CoV-2 M^pro enzyme [2] = molecular target: T1, SARS-CoV-2 M^pro enzyme; test: FRET-based enzyme assay and IC50 determination; format: biochemical; conditions: 4.6 μM enzyme, HEPES pH 6.5

O=C(CSc1cnc2ccccc2n1)NC1CCCC1 [CB03]
Ki (SARS-CoV-2 M^pro enzyme [1]): 256 µM | IC50 (SARS-CoV-2 M^pro enzyme [2]): 301 ± 10 µM

Source: PMC9572942, “The Discovery of Small Allosteric and Active Site Inhibitors of the SARS-CoV-2 Main Protease via Structure-Based Virtual Screening and Biological Evaluation” (Molecules, 2022)
